Here are results for five compounds from ChEMBL document CHEMBL4118261, “Synthesis, iron binding and antimicrobial properties of hexadentate 3-hydroxypyridinones-terminated dendrimers” (2018).

In one assay the test system is Escherichia coli. Description: Antibacterial activity against Escherichia coli CGMCC 1.0907 assessed as growth inhibition at 100 ug/ml after 24 hrs. The class given is functional. To be noted: for inhibition of growth at 100 µg/mL: CGMCC 1.0907, 24 h, read-out: GI.
The subject of another assay is Pseudomonas aeruginosa. In words: Antibacterial activity against Pseudomonas aeruginosa CGMCC 1.2342 assessed as growth inhibition at 100 ug/ml after 24 hrs. The class given is functional. To be noted: for inhibition of growth at 100 µg/mL: CGMCC 1.2342, 24 h, read-out: GI.
The subject of another assay is Staphylococcus aureus. Description: Antibacterial activity against Staphylococcus aureus CGMCC 1.0089 assessed as growth inhibition at 100 ug/ml after 24 hrs. The class given is functional. The following applies: for inhibition of growth at 100 µg/mL: CGMCC 1.0089, 24 h, read-out: GI.
The test system of another assay is Bacillus subtilis. In words: Antibacterial activity against Bacillus subtilis CGMCC 1.0108 assessed as growth inhibition at 100 ug/ml after 24 hrs. The class given is functional. The following applies: for inhibition of growth at 100 µg/mL: CGMCC 1.0108, 24 h, read-out: GI.
A short description of assay [1]: Binding affinity to Fe3+ at 1:6 compound to ferric ion molar ratio measured after 4 hrs at pH 8.2 to 8.4 measured at 460 nm by UV/Vis spectrophotometry.
Assay [2] in a line: Iron chelating activity assessed as pFe3+ by measuring fluorescence intensity of the iron-CP691 complex at 1 uM after 1 month incubation in absence of light using CP691 as fluorescent probe by fluorescence assay relative to CP691 alone.
The nature of assay [3]: Binding affinity to Fe3+ at 1:6 compound to ferric ion molar ratio by HR-ESI MS analysis.
A short description of assay [4]: Binding affinity to Fe3+ at 1:3 compound to ferric ion molar ratio measured after 4 hrs at pH 8.2 to 8.4 measured at 460 nm by UV/Vis spectrophotometry.
Assay [5] is described as follows: Metal chelating activity assessed as formation of [Fe3L+H+Na]2+-compound complex at 1:3 compound to ferric ion molar ratio by HR-ESI MS analysis.
The nature of assay [6]: Metal chelating activity assessed as formation of [Fe3L+H+2Na]3+-compound complex at 1:3 compound to ferric ion molar ratio by HR-ESI MS analysis.
A short description of assay [7]: Binding affinity to Fe3+ at 1:2 compound to ferric ion molar ratio by HR-ESI MS analysis.
Assay [8] can be described thus: Binding affinity to Fe3+ at 1:1 compound to ferric ion molar ratio by HR-ESI MS analysis.
Assay [9] is described as follows: Iron chelating activity assessed as pFe3+ by measuring fluorescence intensity of the iron-CP691 complex at 2 uM after 1 month incubation in absence of light using CP691 as fluorescent probe by fluorescence assay relative to CP691 alone.
Assay [10] is described as follows: Binding affinity to Fe3+ at 1:9 compound to ferric ion molar ratio measured after 4 hrs at pH 8.2 to 8.4 measured at 460 nm by UV/Vis spectrophotometry.
The nature of assay [11]: Iron chelating activity assessed as pFe3+ by measuring fluorescence intensity of the iron-CP691 complex at 0.67 uM after 1 month incubation in absence of light using CP691 as fluorescent probe by fluorescence assay relative to CP691 alone.
Assay [12] in a line: Binding affinity to Fe3+ at 1:9 compound to ferric ion molar ratio by HR-ESI MS analysis.

Molecules are shown by their SMILES. Calls of active or inactive are those of the source. The calls are words filed in the database; no cut-off is given here.

For `Cc1c(O)c(=O)ccn1C` [DEFERIPRONE], the inhibition of growth at 100 µg/mL with Escherichia coli is 89.1%; with Pseudomonas aeruginosa, 79.5%; with Staphylococcus aureus it was 74.8%; with Bacillus subtilis, 77.4%.
`CCCCn1ccc(=O)c(CNC(=O)CCC(CCC(=O)NCc2c(O)c(=O)ccn2CCCC)(CCC(=O)NCc2c(O)c(=O)ccn2CCCC)NC(=O)CCNC(=O)CCC(CCC(=O)NCCC(=O)NC(CCC(=O)NCc2c(O)n(CCCC)ccc2=O)(CCC(=O)NCc2c(O)c(=O)ccn2CCCC)CCC(=O)NCc2c(O)c(=O)ccn2CCCC)(CCC(=O)NCCC(=O)NC(CCC(=O)NCc2c(O)n(CCCC)ccc2=O)(CCC(=O)NCc2c(O)c(=O)ccn2CCCC)CCC(=O)NCc2c(O)c(=O)ccn2CCCC)NC(=O)CCNC(=O)CCNC(=O)c2ccc(C(=O)NCCC(=O)NCCC(=O)NC(CCC(=O)NCCC(=O)NC(CCC(=O)NCc3c(O)n(CCCC)ccc3=O)(CCC(=O)NCc3c(O)c(=O)ccn3CCCC)CCC(=O)NCc3c(O)c(=O)ccn3CCCC)(CCC(=O)NCCC(=O)NC(CCC(=O)NCc3c(O)n(CCCC)ccc3=O)(CCC(=O)NCc3c(O)c(=O)ccn3CCCC)CCC(=O)NCc3c(O)c(=O)ccn3CCCC)CCC(=O)NCCC(=O)NC(CCC(=O)NCc3c(O)n(CCCC)ccc3=O)(CCC(=O)NCc3c(O)c(=O)ccn3CCCC)CCC(=O)NCc3c(O)c(=O)ccn3CCCC)cc2)c1O`: the outcome in [1] was Active. Besides, the log(activity) in assay [2] was 30.3. In addition, the inhibition of growth at 100 µg/mL in the assay on Escherichia coli amounted to 79.8%; in the assay on Pseudomonas aeruginosa it was 87.9%; in the assay with Staphylococcus aureus it was 86.9%; in the assay on Bacillus subtilis, 81.4%. For the same compound, in assay [3], the result was inactive.
Turning to `CCCCn1ccc(=O)c(O)c1CNC(=O)CCC(CCC(=O)NCc1c(O)c(=O)ccn1CCCC)(CCC(=O)NCc1c(O)c(=O)ccn1CCCC)NC(=O)CCNC(=O)CN(CC(=O)NCCC(=O)NC(CCC(=O)NCc1c(O)c(=O)ccn1CCCC)(CCC(=O)NCc1c(O)c(=O)ccn1CCCC)CCC(=O)NCc1c(O)c(=O)ccn1CCCC)CC(=O)NCCC(=O)NC(CCC(=O)NCc1c(O)c(=O)ccn1CCCC)(CCC(=O)NCc1c(O)c(=O)ccn1CCCC)CCC(=O)NCc1c(O)c(=O)ccn1CCCC`, the result in assay [4], in assay [5] and in [6] was Active. In addition, the outcome in assay [7] and in assay [8] was inactive. The log(activity) in assay [9] was found to be 30.3. For the same compound, the inhibition of growth at 100 µg/mL in the assay on Escherichia coli amounted to 71.7%; in the assay with Pseudomonas aeruginosa, 90.4%; in the assay on Staphylococcus aureus, 90%; with Bacillus subtilis, 84.8%.
`CCCCn1ccc(=O)c(CNC(=O)CCC(CCC(=O)NCc2c(O)c(=O)ccn2CCCC)(CCC(=O)NCc2c(O)c(=O)ccn2CCCC)NC(=O)CCNC(=O)CCC(CCC(=O)NCCC(=O)NC(CCC(=O)NCc2c(O)n(CCCC)ccc2=O)(CCC(=O)NCc2c(O)c(=O)ccn2CCCC)CCC(=O)NCc2c(O)c(=O)ccn2CCCC)(CCC(=O)NCCC(=O)NC(CCC(=O)NCc2c(O)n(CCCC)ccc2=O)(CCC(=O)NCc2c(O)c(=O)ccn2CCCC)CCC(=O)NCc2c(O)c(=O)ccn2CCCC)NC(=O)CCNC(=O)CCNC(=O)c2cc(C(=O)NCCC(=O)NCCC(=O)NC(CCC(=O)NCCC(=O)NC(CCC(=O)NCc3c(O)n(CCCC)ccc3=O)(CCC(=O)NCc3c(O)c(=O)ccn3CCCC)CCC(=O)NCc3c(O)c(=O)ccn3CCCC)(CCC(=O)NCCC(=O)NC(CCC(=O)NCc3c(O)n(CCCC)ccc3=O)(CCC(=O)NCc3c(O)c(=O)ccn3CCCC)CCC(=O)NCc3c(O)c(=O)ccn3CCCC)CCC(=O)NCCC(=O)NC(CCC(=O)NCc3c(O)n(CCCC)ccc3=O)(CCC(=O)NCc3c(O)c(=O)ccn3CCCC)CCC(=O)NCc3c(O)c(=O)ccn3CCCC)cc(C(=O)NCCC(=O)NCCC(=O)NC(CCC(=O)NCCC(=O)NC(CCC(=O)NCc3c(O)n(CCCC)ccc3=O)(CCC(=O)NCc3c(O)c(=O)ccn3CCCC)CCC(=O)NCc3c(O)c(=O)ccn3CCCC)(CCC(=O)NCCC(=O)NC(CCC(=O)NCc3c(O)n(CCCC)ccc3=O)(CCC(=O)NCc3c(O)c(=O)ccn3CCCC)CCC(=O)NCc3c(O)c(=O)ccn3CCCC)CCC(=O)NCCC(=O)NC(CCC(=O)NCc3c(O)n(CCCC)ccc3=O)(CCC(=O)NCc3c(O)c(=O)ccn3CCCC)CCC(=O)NCc3c(O)c(=O)ccn3CCCC)c2)c1O`: the outcome in assay [10] was Active. Also, the log(activity) in assay [11] was 29.8. Also, the growth inhibition (GI) in the assay with Escherichia coli is 81.2%; in the assay with Pseudomonas aeruginosa it was 69.9%; in the assay on Staphylococcus aureus, 64.5%; in the assay on Bacillus subtilis it was 64.1%. The outcome in assay [12] was inactive.
`O=C(CCC(CCC(=O)NCc1c(O)c(=O)ccn1CCO)(CCC(=O)NCc1c(O)c(=O)ccn1CCO)NC(=O)CCNC(=O)CN(CC(=O)NCCC(=O)NC(CCC(=O)NCc1c(O)c(=O)ccn1CCO)(CCC(=O)NCc1c(O)c(=O)ccn1CCO)CCC(=O)NCc1c(O)c(=O)ccn1CCO)CC(=O)NCCC(=O)NC(CCC(=O)NCc1c(O)c(=O)ccn1CCO)(CCC(=O)NCc1c(O)c(=O)ccn1CCO)CCC(=O)NCc1c(O)c(=O)ccn1CCO)NCc1c(O)c(=O)ccn1CCO`: the outcome in [5] and in assay [6] was Active. Also, the result in [7] and in assay [8] was inactive. In addition, the log(activity) in assay [9] stood at 30. Besides, the growth inhibition (GI) came out at 99.7% with Escherichia coli, 85.3% with Pseudomonas aeruginosa, 81.7% with Staphylococcus aureus and 95% with Bacillus subtilis.
